{"source": "patent US20060063930A1", "about": "“Compositions and methods comprising proteinase activated receptor antagonists” (priority 2004, published 2006)", "key": {"PAR-1": {"target": "T1, PAR-1 (Homo sapiens, UniProt P25116)", "T1 construct": "endogenous in cells", "T1 sequence (P25116 22-425)": "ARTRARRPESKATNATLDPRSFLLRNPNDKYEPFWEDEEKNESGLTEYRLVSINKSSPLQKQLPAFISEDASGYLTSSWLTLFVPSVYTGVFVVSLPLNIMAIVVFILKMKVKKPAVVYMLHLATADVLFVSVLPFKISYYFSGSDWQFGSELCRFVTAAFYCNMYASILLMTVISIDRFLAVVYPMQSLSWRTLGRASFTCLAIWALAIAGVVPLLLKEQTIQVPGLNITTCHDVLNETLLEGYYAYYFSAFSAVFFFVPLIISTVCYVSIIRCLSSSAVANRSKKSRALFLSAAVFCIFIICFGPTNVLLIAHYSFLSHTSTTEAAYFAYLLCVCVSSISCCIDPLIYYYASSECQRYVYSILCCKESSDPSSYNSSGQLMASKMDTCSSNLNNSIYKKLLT", "experiment": "Inhibition of PAR-1 activation peptide (SFLLRN) calcium signaling in pretreated cells", "assay_type": "cell-based", "settings": "cells pretreated with antagonist", "method": "(§1) In order to assess the potential of peptides and molecules selected above to block PAR-2 signaling, cells were pretreated with potential antagonist peptides for a predetermined amount of time and were subsequently treated with various GPCR agonists. Confluent Lewis lung carcinoma (LLC) cells were loaded for 30-60 minutes with the fluorescent dye Fluo-4. Final concentration 4 uM Fluo-4, 0.02% pluronic acid in physiological buffer. Cells were then washed with assay buffer, (HBSS containing 1 mM CaCl2, 1 mM MgSO4, and 2.5 mM probenecid). Cells were stimulated with various doses of PAR-2 activating peptide, PAR-1 activating peptide or ATP. Fluorescence was monitored using a Wallac 1470 fluorescent plate reader. (See Al-ani et. al Journal of Pharmacology and Experimental Therapeutics 290:2, 753-760). Additional compound screening was performed using U87-MG human glioma cells. In this assay cells were labeled with FLIPR Calcium 3 dye (Component A), which was dissolved in 10 mls of Assay Buffer without Probenecid. Loading buffer was prepared by diluting Component A with an additional 90 mls of Assay Buffer without Probenecid, giving a total volume of a 100 ml. […] Calcium signaling was then measured using a Flexstation II (Molecular Devices) following manufacturer's instructions. […]"}, "BALB/c mice, arthritis": {"system": "BALB/c mice, arthritis", "experiment": "Anti-collagen II antibody/LPS arthritis in mice (hind feet thickness)", "assay_type": "in vivo, mouse", "settings": "200 mg/kg/day intraperitoneally for 7 days", "method": "On day 0, BALB/c mice were injected intravenously with the 1-2 mg 1B11 monoclonal anti-collagen II antibody. On day 1, animals were injected intraperitoneally with 20 μg LPS, and treatment with PAR-2 antagonists (200 mg/kg/day, intraperitoneally) for 7 days. After treatment was completed, disease is quantified by measuring the thickness (swelling) in both hind feet of the mouse. This was compared to untreated mice (p<0.05 vs. vehicle control)."}, "PAR-2 [1]": {"system": "PAR-2", "experiment": "Inhibition of PAR-2 activating peptide (AP2) calcium signaling in cells pretreated with antagonist", "assay_type": "cell-based, human", "design": "key to PAR-2 AP2 Signaling Treated/Control (T/C) / PAR-2 AP2 Signaling Treated/Control: AUC of calcium mobilization, treated ÷ control wells", "settings": "for PAR-2 AP2 Signaling Treated/Control: mimetic antagonists; for PAR-2 AP2 Signaling Treated/Control / PAR-2 AP2 Signaling Treated/Control (T/C): AUC of calcium mobilization treated/control, initially screened at 1 mM compound; for PAR-2 antagonist activity in vitro (in words): pretreated cells, then P2AP; for PAR-2 AP2 Signaling Treated/Control (T/C): peptides", "outline": "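LLC cells loaded with Fluo-4 (4 uM final), and U87-MG glioma cells loaded with FLIPR Calcium 3 dye with 2.5 mM probenecid, were pretreated with antagonist, then stimulated with PAR-2 activating peptide. Initial screening was at 1 mM. Calcium AUC of treated over control wells is reported as T/C.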"}, "ATP signaling": {"system": "ATP signaling", "experiment": "Inhibition of ATP calcium signaling in pretreated cells", "assay_type": "cell-based", "settings": "cells pretreated with antagonist", "method": "as §1"}, "PAR-2 [2]": {"system": "PAR-2", "experiment": "PAR signalling activity: calcium mobilization (Fluo-4) in response to peptide", "assay_type": "cell-based", "settings": "FIGS. 2A-2C", "method": "Confluent HUVECs, Lewis lung carcinoma cells or U87-MG glioma cells or HT29 colon carcinoma cells were loaded for 30-60 minutes with the fluorescent dye Fluo-4. Final concentration 4 uM Fluo-4, 0.02% pluronic acid in physiological buffer. Cells were then washed with assay buffer, (HBSS containing 1 mM CaCl2, 1 mM MgSO4, and 2.5 mM probenecid). Cells were stimulated with various doses of PAR-2 activating peptide, PAR-1 activating peptide or ATP. Fluorescence was monitored using a Wallac 1470 fluorescent plate reader. (See Al-ani et. al Journal of Pharmacology and Experimental Therapeutics 290:2, 753-760)\nCalcium mobilization curves of the PAR-2 agonist SLIGKV (ENMD-1003) (SEQ ID NO:52) compared with two truncated molecules LIGK (ENMD-1005) (SEQ ID NO:1) and LIGKV (ENMD-1007) (SEQ ID NO:2) are provided in FIG. 2A. […] Similar studies were performed on alanine substituted SLIGKV (ENMD-1003) (SEQ ID NO:52) peptides (FIGS. 2B and 2C)."}}, "note": "Where no end group is shown, it is not given here. [ ]: non-standard residue; d: D form. Phe(4-NH2) = Nc1ccc(C[C@H](N)C(=O)O)cc1; Sta = CC(C)C[C@H](N)[C@@H](O)CC(=O)O"}
{"compound": "Br.CC(C)CC(=O)N1CCN(C(=O)CCCCCN)CC1", "note": "[ENMD-1068, 1-(4-(3-methylbutanoyl)piperazin-1-yl)-(6′-aminohexan-1-amide) hydrobromide]", "values": [{"measurement": "Inhibitory effect on PAR-1 signaling", "setting": "PAR-1", "result": "no inhibitory effects"}, {"measurement": "Effect on inflammation / arthritis", "setting": "BALB/c mice, arthritis", "result": "inhibited inflammation"}, {"measurement": "PAR-2 AP2 Signaling Treated/Control", "setting": "PAR-2 [1]", "result": 0.58}, {"measurement": "PAR-2 antagonist activity in vitro (in words)", "setting": "PAR-2 [1]", "result": "inhibitor of PAR-2 signaling in vitro"}, {"measurement": "Inhibitory effect on ATP signaling", "setting": "ATP signaling", "result": "no inhibitory effects"}]}
{"compound": "SLIAKV [ENMD-1011]", "values": [{"measurement": "Calcium mobilization / PAR-2 signaling activity (in words)", "setting": "PAR-2 [2]", "result": "robust signaling activity"}]}
{"compound": "SLIGKV [ENMD-1003, reference compound]", "values": [{"measurement": "Calcium mobilization / PAR-2 signaling activity (in words)", "setting": "PAR-2 [2]", "result": "typical spike of calcium release followed by degradation of signal"}]}
{"compound": "SLIGKA [ENMD-1013]", "values": [{"measurement": "Calcium mobilization / PAR-2 signaling activity (in words)", "setting": "PAR-2 [2]", "result": "robust signaling activity"}]}
{"compound": "NCCCCCNC(=O)c1ccc(C(=O)NCC2CCCCC2)cc1", "note": "[ENMD-1766, N^1-(5-aminopentyl)-N-4-(cyclohexylmethyl)-terephthalamide]", "values": [{"measurement": "PAR-2 AP2 Signaling Treated/Control", "setting": "PAR-2 [1]", "result": 0.73}]}
{"compound": "dL-dI-dG-dK [ENMD-1032]", "values": [{"measurement": "PAR-2 AP2 Signaling Treated/Control (T/C)", "setting": "PAR-2 [1]", "result": 0.44}]}
{"compound": "Cl.O=C(CC1CCCCC1)Nc1ccc(NC(=O)C2CCCNC2)cc1", "note": "(stereo not drawn) [ENMD-1771, N-(4-(2-cyclohexylacetamido)phenyl) piperidine-3-carboxamide hydrochloride]", "values": [{"measurement": "PAR-2 AP2 Signaling Treated/Control", "setting": "PAR-2 [1]", "result": 0.05}]}
{"compound": "LPGK [ENMD-1053]", "values": [{"measurement": "PAR-2 AP2 Signaling Treated/Control (T/C)", "setting": "PAR-2 [1]", "result": 0.89}]}
{"compound": "L-Sta-K (Leu-[Sta]-Lys) [ENMD-1056]", "values": [{"measurement": "PAR-2 AP2 Signaling Treated/Control (T/C)", "setting": "PAR-2 [1]", "result": 1.35}]}
{"compound": "CC(C)CC(=O)NCCNC(=O)Cc1ccc(N)cc1.Cl", "note": "[ENMD-1416, N-(2-(2-(4-aminophenyl)acetamido)ethyl)-3-methylbutan-amide hydrochloride]", "values": [{"measurement": "PAR-2 AP2 Signaling Treated/Control", "setting": "PAR-2 [1]", "result": 0.48}]}
{"compound": "O=C(Cc1ccccn1)N1CCN(C(=O)CC2CCCCC2)CC1", "note": "[ENMD-1069, 1-(4-(2-cyclohexylacetyl)piperazin-1-yl)-2-(pyridin-2-yl)-acetaldehyde]", "values": [{"measurement": "PAR-2 AP2 Signaling Treated/Control", "setting": "PAR-2 [1]", "result": 0.94}]}
{"compound": "CC(C)CNC(=O)c1cc(CNC(=O)CCCCN)on1", "note": "[ENMD-1555, 5-[(5-amino-pentanoylamino)-methyl]-isoxazole-3-carboxylic acid isobutyl-amide]", "values": [{"measurement": "PAR-2 AP2 Signaling Treated/Control", "setting": "PAR-2 [1]", "result": 0.86}]}
{"compound": "Cl.NC1CCC(C(=O)Nc2ccc(NC(=O)CC3CCCCC3)cc2)C1", "note": "(stereo in doubt) [ENMD-1768, (1R,3S)-N-(4-(2-cyclohexylacetamido)phenyl)-3-aminocyclopentanecarboxamide hydrochloride]", "values": [{"measurement": "PAR-2 AP2 Signaling Treated/Control", "setting": "PAR-2 [1]", "result": 0.10}]}
{"compound": "CC(C)CNC(=O)c1ccc(OCCCN)cc1", "note": "[ENMD-1410, 4-(3-aminopropoxy)-N-isobutyl-benzamide]", "values": [{"measurement": "PAR-2 AP2 Signaling Treated/Control", "setting": "PAR-2 [1]", "result": 0.55}]}
{"compound": "Cl.N[C@H]1CC[C@H](C(=O)N2CCN(C(=O)CC3CCCCC3)CC2)C1", "note": "[ENMD-1779, N1-2-cyclohexylethanoyl-N-4-(1R,3R)-1-amino-cyclopentane-3-carbonyl piperazine hydrochloride]", "values": [{"measurement": "PAR-2 AP2 Signaling Treated/Control", "setting": "PAR-2 [1]", "result": 0.89}]}
{"compound": "NCCCCCNc1cnc(C(=O)NCC2CCCCC2)cn1", "note": "[ENMD-1775, cyclohexylmethyl-6-(5-aminopentaneamino)-2-pyrazine amide]", "values": [{"measurement": "PAR-2 AP2 Signaling Treated/Control", "setting": "PAR-2 [1]", "result": 0.90}]}
{"compound": "CC(C)CC(=O)N1CCN(C(=O)CCCCCNC(=N)N)CC1", "note": "[ENMD-1067, 4-(3-methylbutanoyl)piperazin-1-(5′-carbamoyl-pentylguanidine)]", "values": [{"measurement": "PAR-2 AP2 Signaling Treated/Control", "setting": "PAR-2 [1]", "result": 0.77}]}
{"compound": "LIG-dK (LIG[dK]) [ENMD-1384]", "values": [{"measurement": "PAR-2 AP2 Signaling Treated/Control (T/C)", "setting": "PAR-2 [1]", "result": 0.16}]}
{"compound": "LIG-(4-aminoF) (LIG[Phe(4-NH2)]) [ENMD-1030]", "values": [{"measurement": "PAR-2 AP2 Signaling Treated/Control (T/C)", "setting": "PAR-2 [1]", "result": 0.05}]}
{"compound": "CC(C)CNC(=O)c1ccc(NCCCCN)nc1", "note": "[ENMD-1562, 6-(4-aminobutylamine)-3-(isobutyl)-nicotinoyl amide]", "values": [{"measurement": "PAR-2 AP2 Signaling Treated/Control", "setting": "PAR-2 [1]", "result": 0.57}]}
{"compound": "NCCCCCCNC(=O)C1CN(C(=O)CC2CCCCC2)CCO1", "note": "(stereo not drawn) [ENMD-1521, 4-(2-Cyclohexyl-acetyl)-morpholine-2-carboxylic acid (6-amino-hexyl)-amide]", "values": [{"measurement": "PAR-2 AP2 Signaling Treated/Control", "setting": "PAR-2 [1]", "result": 1.01}]}
{"compound": "CCCCCC(=O)N1CCN(C(=O)CCCCCN)CC1", "note": "[ENMD-1039, N^1-hexanoyl-N^4-[6-aminohexanoyl]-piperazine]", "values": [{"measurement": "PAR-2 AP2 Signaling Treated/Control", "setting": "PAR-2 [1]", "result": 1.34}]}
{"compound": "NCCCCNC(=O)c1ccc(NCC2CCCCC2)nc1", "note": "[ENMD-1538]", "values": [{"measurement": "PAR-2 AP2 Signaling Treated/Control", "setting": "PAR-2 [1]", "result": 0.48}]}
{"compound": "NCCCCCCn1cccc1C(=O)NCC1CCCCC1", "note": "[ENMD-1570]", "values": [{"measurement": "PAR-2 AP2 Signaling Treated/Control", "setting": "PAR-2 [1]", "result": 0.05}]}
{"compound": "CCCCC(=O)N1CCN(C(=O)CCCCCN)CC1", "note": "[ENMD-1040, N^1-pentanoyl-N-4-[6′-aminohexanoyl]-piperazine]", "values": [{"measurement": "PAR-2 AP2 Signaling Treated/Control", "setting": "PAR-2 [1]", "result": 1.04}]}
{"compound": "CC(C)CC(=O)NCc1cc(C(=O)NCCCCCCN)no1", "note": "[ENMD-1556, 5-[(3-methyl-butyrylamino)-methyl]-isoxazole-3-carboxylic acid (6-amino-hexyl)-amide]", "values": [{"measurement": "PAR-2 AP2 Signaling Treated/Control", "setting": "PAR-2 [1]", "result": 0.57}]}
{"compound": "CC(C)CC(=O)Nc1cc(C(=O)NCCCCCCN)n[nH]1", "note": "[ENMD-1550, 5-(3-methyl-butyrylamino)-1H-pyrazole-3-carboxylic acid (6-amino-hexyl)-amide]", "values": [{"measurement": "PAR-2 AP2 Signaling Treated/Control", "setting": "PAR-2 [1]", "result": 0.63}]}
{"compound": "LIGKV [ENMD-1007]", "values": [{"measurement": "PAR-2 antagonist activity in vitro (in words)", "setting": "PAR-2 [1]", "result": "demonstrated antagonist activity"}, {"measurement": "Calcium mobilization / PAR-2 signaling activity (in words)", "setting": "PAR-2 [2]", "result": "Neither truncated molecule was able to induce calcium mobilization"}]}
